Experimental data from patent US20250134844A1, “THERAPEUTIC USE OF PLEUROMUTILINS” (Nabriva Therapeutics GmbH, priority 2022, published 2025).
Values after ≈ are worked out from the molar mass of the structure shown. Like-named read-outs stand apart in the source and are kept apart here.

Columns and labels:
T. pallidum = experiment: Rabbit infectivity test (RIT) with popliteal lymph nodes; format: in vivo; details: for orchitis or seroconversion (VDRL, TPPA) of RIT rabbits: 3-months observation period, lymph nodes from treated test rabbits; for seroconversion in FTA-ABS test: RIT rabbits, control animals 3+ reactivity or higher
Text: The test rabbits from Example 3 were used for a subsequent study in a RIT, wherein samples from the popliteal lymph nodes were transferred to new (naïve) rabbits, which were subsequently analyzed for disease symptoms and tested serologically (Haynes, A. M., Giacani, L., Vall Mayans, M., et al. Efficacy of linezolid on Treponema pallidum, the syphilis agent: A preclinical study. eBioMedicine 65, 103281 (2021). Doi: 10.1016/j.ebiom.2021.103281).
Following euthanasia, popliteal lymph nodes (LN) from all the rabbits in the Lefamulin, BPG, and control groups were harvested. Lymph nodes from each rabbit were pooled and homogenized in a solution containing equal amounts of sterile saline and serum from an uninfected rabbit. One milliliter of homogenate from each test rabbit was then inoculated into the left testicle of a naïve rabbit to perform the RIT. For the rabbit, which died at day 3 post-treatment initiation, lymph nodes were harvested and transferred to a RIT rabbit within 1 hour after the animal's death.
Inoculated animals were checked for orchitis twice weekly. Serum was collected monthly for three months and analyzed with two different serological tests, i.e. VDRL (Venereal Disease Research Laboratory; Becton-Dickinson, Franklin Lanes, NJ) and TPPA (Treponema pallidum Particle Agglutination; Fujirebio, Malvern, PA). Also an FTA-ABS test (Fluorescent Treponemal Antibody-Absorption; Trinity Biotech, Jamestown, NY) was performed.

T. pallidum SS14 strain = experiment: In vitro susceptibility in co-culture with rabbit Sf1Ep cells, qPCR of tp0574 gene; format: cell-based, Treponema pallidum
Description: (§1) The in vitro susceptibility determination essentially followed the protocol described by Edmondson et al. (Edmondson, D. G., Hu, B., Norris, S. J. Long-Term In Vitro Culture of the Syphilis Spirochete Treponema pallidum subsp. pallidum. mBio 9(3) e01153-18. (2018). doi: 10.1128/mBio.01153-18).
(§2) Briefly, 3×10^3 rabbit Sf1Ep cells seeded in 96-well microtiter plates in 150 μl of culture media, were inoculated with the T. pallidum strains Chicago and SS14 at an inoculum of 3×10^3 (counted using dark field microscopy) in TpCM-2 medium that was equilibrated overnight at 34° C. in a microaerophilic environment consisting of 1.5% O2, 3.5% CO2 and 95% N2 supplied as a tri-gas mix. Lefamulin and penicillin G were added from 100-fold concentrated stocks in water to achieve the final test concentrations of 5, 2.5, 0.5, 0.1, 0.02. 0.01. 0.005, and 0.0025 μg/ml for Lefamulin and 60 ng/ml for penicillin G. Then the culture plates were incubated at 34° C. in a tri-gas incubator. Cells were then lysed and the DNA extracted using a Quick DNA-96 kit followed by the quantification of the treponemes by quantitative real-time PCR in triplicate targeting the tp0574 gene (Giacani L, Molini B, Godornes C, Barrett L, Van Voorhis WC, Centurion-Lara A, et al. Quantitative analysis of tpr gene expression in Treponema pallidum isolates: differences among isolates and correlation with T-cell responsiveness in experimental syphilis. Infect Immun. 75(1), 104-12 (2007). doi: 10.1128/IAI.01124-06).

[1] = system: T. pallidum Chicago strain; experiment: as above; format: cell-based, Treponema pallidum
Description: as §1, §2

Borreliella spp. = experiment: MIC by broth microdilution against Borreliella isolates; format: cell-based; details: range over 6 isolates (5 B. burgdorferi, 1 B. garinii)
Description: Minimal inhibitory concentrations (MIC) were determined against five (n=5) Borreliella burgdorferi isolates (ATCC 51990, 55131, 35211, 35210, 53899) and one (n=1) Borreliella garinii isolate (ATCC 51991) by broth microdilution technique (Dever, L. L., Jorgensen, J. H., Barbour, A. G. In vitro antimicrobial susceptibility testing of Boreliella burgdorferi: a microdilution MIC method and time-kill studies. J Clin Microbiol. 30(10), 2692-2697. (1992) doi: 10.1128/jcm.30.10.2692-2697.1992; Feng, J., Wang, T., Shi, W., et al. Identification of novel activity against Boreliella burgdorferi persisters using an FDA approved drug library. Emerg Microb Infect 3, e49 (2014) doi: 10.1038/emi.2014.53). The general procedures for broth microdilution were done according to the CLSI guidelines M7 and M100-S31 (CLSI. (2018) Methods for dilution antimicrobial susceptibility tests for bacteria that grow aerobically; Eleventh edition. M07.; CLSI. (2021) Performance Standards for Antimicrobial Susceptibility Testing; Thirty-first Edition. M100-S31).
Briefly, Borreliella spp. were grown at 36° C. under microaerophilic conditions in BSK II medium until the logarithmic or stationary growth phase was reached. The growth phase was determined by semiquantitative measurement of active and dormant cells by fluorescence microscopy of cells stained with the fluorescent dyes SYBR Green I and propidium iodide. An inoculum of 10^5−10^6 spirochetes/mL was used to inoculate broth microdilution plates containing serially 2-fold diluted test compounds.

[2] = system: T. pallidum cells (Chicago strain); experiment: Rabbit model of intradermal Treponema pallidum infection (syphilis); format: in vivo; details: for lesion progression past the initial state of mild induration: 40 days observation; for T. pallidum mRNA (tp0574 message normalized to HPRT) in lesion biopsies: day 3 post-treatment initiation; for T. pallidum cells in lesion aspirates by DFM: since day 3 post-treatment initiation
Description: The preclinical study to test Lefamulin against T. pallidum was conducted in analogy to an investigation of the antibiotic compound linezolid (Haynes, A. M., Giacani, L., Vall Mayans, M., et al. Efficacy of linezolid on Treponema pallidum, the syphilis agent: A preclinical study. eBioMedicine 65, 103281 (2021). doi: 10.1016/j.ebiom.2021.103281).
In the syphilis infection model, each animal was infected intradermally (ID) with 10^6 freshly harvested, viable and infectious T. pallidum cells (Chicago strain) per site of infection on 10 sites on their shaved backs to induce appearance of primary syphilis lesions. Treponemal viability prior to ID infection was assessed by dark field microscopy (DFM). A dose of infectious treponemes (10^6/site of infection) induces the appearance of an erythematous lesion at the inoculation site within ˜5 days post-inoculation. Overall, the arch of lesion progression from the erythematous stage to the indurated, ulcerated, and healed stages encompasses approximately 4 weeks.
Herein, three groups of three rabbits were infected. Three animals were treated orally with 70 mg/kg Lefamulin every 12 h for 3 days (day 7 to day 10 post-infection). As positive control group, another three animals were treated with Benzathine penicillin G (BPG) as single intramuscular (IM) injection (300,000 units; equivalent w/w to 4.8 million units for humans). One group (n=3) served as untreated control. The cutaneous lesions were monitored macroscopically for clinical development, documented by photography on regular basis and measured for their diameter every day for a period of 40 days.
Treponemal burden within these lesions was assessed by taking needle aspirates from the lesions and analyzing the aspirates for pathogen cell count using DFM as well as quantification of treponemal DNA extracted from the aspirates at day 3, 8, 12, and 16 Additionally, mRNA extracted from lesion biopsies obtained post-treatment initiation was also quantified as a surrogate of viability. The gene copy number of the T. pallidum tp0574 gene was quantified by qPCR. Additionally, the tp0574 gene message was normalized to the message of the rabbit housekeeping gene HPRT to evaluate the burden of viable T. pallidum cells within lesion biopsies.

[3] = 192 h, stationary growth phase cultures, read after 8 days, read-out: MIC (μg/mL) for Stationary Growth Phase Culture (n = 6)
[4] = logarithmic growth phase cultures, read after 5 or 6 days, read-out: MIC (μg/mL) for Logarithmic Growth Phase Culture (n = 6)

C=C[C@]1(C)C[C@@H](OC(=O)CS[C@@H]2CC[C@@H](N)C[C@H]2O)[C@]2(C)[C@H](C)CC[C@]3(CCC(=O)[C@H]32)[C@@H](C)[C@@H]1O [Lefamulin, 14-O-{[(1R, 2R, 4R)-4-amino-2-hydroxy-cyclohexylsulfanyl]-acetyl}-mutilin]
orchitis or seroconversion (VDRL, TPPA) of RIT rabbits (T. pallidum): None of the animals developed orchitis or seroconverted
seroconversion in FTA-ABS test (T. pallidum): none of the BGP or Lefamulin treated animals seroconverted
mean copy number of tp0574 gene (T. pallidum SS14 strain; SS14 strain, at ≥10 ng/mL Lefamulin, day 7, untreated control 894 copies/μL): 33-124 copies/μL
inhibiting Lefamulin concentration (T. pallidum SS14 strain; T. pallidum SS14 strain, inhibited at 10-20 ng/mL or higher): 10 to 20 ng/mL
mean copy number of tp0574 gene ([1]; Chicago strain, at ≥10 ng/ml Lefamulin, day 7, untreated control 13,052 copies/μL): 324-403 copies/μL
MIC ([1]; Treponema pallidum, 168 h, T. pallidum Chicago strain, day 7, read-out: minimal inhibitory concentration (MIC)): ≥ 0.01 mg/L
MIC (Borreliella spp.; [3]): 0.001 to 0.008 µg/mL (≈ 0.00197 to 0.0158 µM)
MIC (Borreliella spp.; [4]): 0.001 to 0.008 µg/mL (≈ 0.00197 to 0.0158 µM)
death in treated group ([2]; 70 mg/kg orally every 12 h, day 3 of treatment, most likely inhalation of Lefamulin caused by reflux): one rabbit died
lesion progression past the initial state of mild induration [2]: None of the lesions in these two groups progressed past the initial state of mild induration
T. pallidum mRNA (tp0574 message normalized to HPRT) in lesion biopsies [2]: absent
lesions still measurable ([2]; day 9 post-treatment initiation): 14%
lesion diameter compared to the untreated controls ([2]; day 10 post-infection, end of treatment, p<0.05): significantly lower
day post-treatment initiation by which no induration could be measured at any site ([2]; post-treatment initiation): ≤ 13 days
T. pallidum cells in lesion aspirates by DFM [2]: no treponemal bacteria could be found

C=C[C@]1(C)C[C@@H](OC(=O)CSCCN(CC)CC)[C@]2(C)[C@H](C)CC[C@]3(CCC(=O)[C@H]32)[C@@H](C)[C@@H]1O [Tiamulin]
MIC (Borreliella spp.; [3]): 0.03 to 0.25 µg/mL (≈ 0.0608 to 0.506 µM)
MIC (Borreliella spp.; [4]): 0.03 to 0.5 µg/mL (≈ 0.0608 to 1.01 µM)

CO/N=C(\C(=O)N[C@@H]1C(=O)N2C(C(=O)O)=C(COC(N)=O)CS[C@H]12)c1ccco1 [Cefuroxime]
MIC (Borreliella spp.; [3]): 0.016 to 0.25 µg/mL (≈ 0.0377 to 0.589 µM)
MIC (Borreliella spp.; [4]): 0.016 to 0.25 µg/mL (≈ 0.0377 to 0.589 µM)

CC[C@H]1OC(=O)[C@H](C)[C@@H](O[C@H]2C[C@@](C)(OC)[C@@H](O)[C@H](C)O2)[C@H](C)[C@@H](O[C@@H]2O[C@H](C)C[C@H](N(C)C)[C@H]2O)[C@](C)(O)C[C@@H](C)CN(C)[C@H](C)[C@@H](O)[C@]1(C)O [Azithromycin]
MIC (Borreliella spp.; [3]): 0.001 to 0.004 µg/mL (≈ 0.00134 to 0.00534 µM)
MIC (Borreliella spp.; [4]): 0.001 to 0.004 µg/mL (≈ 0.00134 to 0.00534 µM)

CC1(C)S[C@@H]2[C@H](NC(=O)Cc3ccccc3)C(=O)N2[C@H]1C(=O)O.CC1(C)S[C@@H]2[C@H](NC(=O)Cc3ccccc3)C(=O)N2[C@H]1C(=O)O.c1ccc(CNCCNCc2ccccc2)cc1 [BPG, Benzathine penicillin G]
orchitis or seroconversion (VDRL, TPPA) of RIT rabbits (T. pallidum): None of the animals developed orchitis or seroconverted
seroconversion in FTA-ABS test (T. pallidum): none of the BGP or Lefamulin treated animals seroconverted
lesion progression past the initial state of mild induration [2]: None of the lesions in these two groups progressed past the initial state of mild induration
T. pallidum mRNA (tp0574 message normalized to HPRT) in lesion biopsies [2]: absent
measured sites resolved ([2]; day 9 post-BPG administration): 95%
measured sites resolved ([2]; day 12 post-treatment): 100%
T. pallidum cells in lesion aspirates by DFM [2]: no treponemal bacteria could be found

C=C[C@]1(C)C[C@@H](OC(=O)CO)[C@]2(C)[C@H](C)CC[C@]3(CCC(=O)[C@H]32)[C@@H](C)[C@@H]1O [Pleuromutilin]
MIC (Borreliella spp.; [3]): 0.12 to 2 µg/mL (≈ 0.317 to 5.28 µM)
MIC (Borreliella spp.; [4]): 0.12 to 1 µg/mL (≈ 0.317 to 2.64 µM)

C[C@H]1c2cccc(O)c2C(=O)C2=C(O)[C@]3(O)C(=O)C(C(N)=O)=C(O)[C@@H](N(C)C)[C@@H]3[C@@H](O)[C@@H]21 [Doxycycline]
MIC (Borreliella spp.; [3]): 0.03 to 0.5 µg/mL (≈ 0.0675 to 1.13 µM)
MIC (Borreliella spp.; [4]): 0.03 to 0.5 µg/mL (≈ 0.0675 to 1.13 µM)

CO/N=C(\C(=O)N[C@@H]1C(=O)N2C(C(=O)O)=C(CSc3nc(=O)c(=O)[nH]n3C)CS[C@H]12)c1csc(N)n1 [Ceftriaxone]
MIC (Borreliella spp.; [3]): 0.004 to 0.03 µg/mL (≈ 0.00721 to 0.0541 µM)
MIC (Borreliella spp.; [4]): 0.004 to 0.016 µg/mL (≈ 0.00721 to 0.0289 µM)

CC1(C)S[C@@H]2[C@H](NC(=O)Cc3ccccc3)C(=O)N2[C@H]1C(=O)O [penicillin G]
copy number of tp0574 gene (T. pallidum SS14 strain; SS14 strain, penicillin G 60 ng/mL): 91 copies/μL
copy number of tp0574 gene ([1]; Chicago strain, penicillin G 60 ng/mL): 247 copies/μL

CC[C@H]1OC(=O)[C@H](C)[C@@H](O[C@H]2C[C@@](C)(OC)[C@@H](O)[C@H](C)O2)[C@H](C)[C@@H](O[C@@H]2O[C@H](C)C[C@H](N(C)C)[C@H]2O)[C@](C)(O)C[C@@H](C)C(=O)[C@H](C)[C@@H](O)[C@]1(C)O [Erythromycin]
MIC (Borreliella spp.; [3]): 0.001 to 0.004 µg/mL (≈ 0.00136 to 0.00545 µM)
MIC (Borreliella spp.; [4]): 0.002 to 0.016 µg/mL (≈ 0.00273 to 0.0218 µM)

CC1(C)S[C@@H]2[C@H](NC(=O)[C@H](N)c3ccc(O)cc3)C(=O)N2[C@H]1C(=O)O [Amoxicillin]
MIC (Borreliella spp.; [3]): 0.03 to 0.12 µg/mL (≈ 0.0821 to 0.328 µM)
MIC (Borreliella spp.; [4]): 0.03 to 0.12 µg/mL (≈ 0.0821 to 0.328 µM)

C[C@H]1COc2c(N3CCN(C)CC3)c(F)cc3c(=O)c(C(=O)O)cn1c23 [Levofloxacin]
MIC (Borreliella spp.; [3]): 2 to 8 µg/mL (≈ 5.53 to 22.1 µM)
MIC (Borreliella spp.; [4]): 2 to 4 µg/mL (≈ 5.53 to 11.1 µM)
